Tests used:
L6 rat myoblasts = assay: OCR Seahorse assay (oxygen consumption rate, mitochondrial uncoupling); conditions: for EC50 / Emax at 200 µM: Rattus norvegicus; for EC50: L6; for Emax at 200 µM: L6, read-out: % of BAM15 OCR, L6 myoblasts, integrated area under OCR dose curve above baseline relative to BAM15 of same experiment, NA = No Activity, highest tested concentration 200 μM
Method: With 7 and 9 derivatives in hand, we screened for mitochondrial uncoupling activity as a function of oxygen consumption rate (OCR). […] OCR was measured using an Agilent Seahorse XF24 or XFe96 Analyzer (Agilent Technologies, Santa Clara, CA). L6 myoblasts were seeded in a Seahorse 24 or 96-well tissue culture plate at a density of 3.5 × 10^4 cells/well. The cells were then allowed to adhere overnight. […] Compounds were injected during the assay, and OCR was measured using 2 min measurement periods. Cells were treated with a single drug concentration per well and measured over a 90 min period. Two wells were used per condition and, where applicable, results from multiple plates were averaged together. The first three measurements after injection for each concentration were averaged to produce a dose curve. […] AUC values were also calculated using the same software.

in vivo = conditions: male, C57BL/6, mouse, plasma, po, 10 mg/kg
Method: The exposure levels in plasma were determined by liquid chromatography/mass spectrometry (LC/MS) and half-life was calculated. […] Samples were processed at UNSW for liquid chromatography tandem mass spectrometry (LC–MS/MS) by protein precipitation into a mixture of acetonitrile/methanol solution (AcN-MeOH, 9:1). Seven μL of plasma was precipitated in 100 μL of AcN-MeOH, followed by centrifugation at 18,000g for 10 min and collection of the supernatant for analysis. […] Chromatographic separation was achieved using an ACUITY UPLC BEH, C18 column (Waters, WT186002350, USA). Mobile phase A consisted of 0.1% v/v formic acid in HLPC grade water, while mobile phase B consisted of 0.1% v/v formic acid in ACN. Electrospray ionization (ESI) was performed in negative mode. […] Pharmacokinetic properties were calculated using PKSolver add-in tool (Excel).

L6 myoblast cells = assay: Mitochondrial stress test and self-limiting test (OCR); conditions: L6 myoblasts
GAN mouse model of MASH = assay: Gubra-Amylin NASH (GAN) diet mouse model of MASH; format: in vivo
[1] = design: method as in PMID 38629387; conditions: STEP-1 clinical trials; cited from earlier work
[2] = 200 mg kg^–1 in GAN diet, 4 weeks

Molecule | EC50 (L6 rat myoblasts) [µM] | Emax at 200 µM (L6 rat myoblasts) [%] | other results
Oc1c(Nc2ccc(-c3cccc(F)c3)cc2)cnc2nonc12 [7al, 6-((3′-Fluoro-[1,1′-biphenyl]-4-yl)amino)-[1,2,5]oxadiazolo[3,4-b]pyridin-7-ol] | 1.2 ± 0.1 | 36 | Cmax at 24 h (in vivo): 4 µM; half-life at 24 h (in vivo): 0.9 ± 0.34 h
Oc1c(Nc2ccc(-c3ccc(F)cc3)cc2)cnc2nonc12 [7ao, 6-((4′-Fluoro-[1,1′-biphenyl]-4-yl)amino)-[1,2,5]oxadiazolo[3,4-b]pyridin-7-ol] | 1.7 ± 0.2 | < 50 | Cmax at 24 h (in vivo): 6 µM; half-life at 24 h (in vivo): 0.9 ± 0.07 h
Oc1c(Nc2ccc(-c3ccc(Cl)cc3)cc2)cnc2nonc12 [7ap, 6-((4′-Chloro-[1,1′-biphenyl]-4-yl)amino)-[1,2,5]oxadiazolo[3,4-b]pyridin-7-ol] | 0.9 ± 0.1 | < 50 | Cmax at 24 h (in vivo): 4 µM; half-life at 24 h (in vivo): 1.8 ± 0.25 h
Oc1c(Nc2cccc(F)c2F)cnc2nonc12 [7t, 6-((2,3-Difluorophenyl)amino)-[1,2,5]oxadiazolo[3,4-b]pyridin-7-ol] | 64 ± 3.3 | 60 | 
Oc1c(Nc2ccc(F)cc2F)cnc2nonc12 [7u, 6-((2,4-Difluorophenyl)amino)-[1,2,5]oxadiazolo[3,4-b]pyridin-7-ol] | 40 ± 1.9 | 83 | 
Oc1c(Nc2cc(F)ccc2F)cnc2nonc12 [7v, 6-((2,5-Difluorophenyl)amino)-[1,2,5]oxadiazolo[3,4-b]pyridin-7-ol] | 64 ± 5.3 | 69 | 
Oc1c(Nc2c(F)cccc2F)cnc2nonc12 [7w, 6-((2,6-Difluorophenyl)amino)-[1,2,5]oxadiazolo[3,4-b]pyridin-7-ol] | 52 ± 8.8 | 54 | 
Oc1c(Nc2ccc(F)c(F)c2)cnc2nonc12 [7x, 6-((3,4-Difluorophenyl)amino)-[1,2,5]oxadiazolo[3,4-b]pyridin-7-ol] | 63 ± 3.7 | 55 | 
Oc1c(Nc2ccc(F)c(F)c2F)cnc2nonc12 [7y, 6-((2,3,4-Trifluorophenyl)amino)-[1,2,5]oxadiazolo[3,4-b]pyridin-7-ol] | 44 ± 3.6 | 68 | 
Oc1c(Nc2c(F)c(F)c(F)c(F)c2F)cnc2nonc12 [7z, 6-((Perfluorophenyl)amino)-[1,2,5]oxadiazolo[3,4-b]pyridin-7-ol] | 18 ± 2.4 | 50 | 
Oc1c(-c2ccccc2F)cnc2nonc12 [9a, 6-(2-Fluorophenyl)-[1,2,5]oxadiazolo[3,4-b]pyridin-7-ol] | 27 ± 2.8 | 69 | 
Oc1c(-c2ccccc2Cl)cnc2nonc12 [9b, 6-(2-Chlorophenyl)-[1,2,5]oxadiazolo[3,4-b]pyridin-7-ol] | 85 ± 16 | 49 | 
Oc1c(-c2cccc(Cl)c2)cnc2nonc12 [9c, 6-(3-Chlorophenyl)-[1,2,5]oxadiazolo[3,4-b]pyridin-7-ol] | 25 ± 3.1 | 61 | 
Oc1c(-c2cccc(C(F)(F)F)c2)cnc2nonc12 [9d, 6-(3-(Trifluoromethyl)phenyl)-[1,2,5]oxadiazolo[3,4-b]pyridin-7-ol] | 26 ± 4.5 | 59 | cellular toxicity in OCR assay (L6 rat myoblasts; L6 myoblasts, at higher concentrations): exhibited cellular toxicity at higher concentrations
Oc1c(-c2ccc(Cl)cc2)cnc2nonc12 [9e, 6-(4-Chlorophenyl)-[1,2,5]oxadiazolo[3,4-b]pyridin-7-ol] | 12 ± 0.6 | 52 | 
Oc1c(-c2cccs2)cnc2nonc12 [9g, 6-(Thiophen-2-yl)-[1,2,5]oxadiazolo[3,4-b]pyridin-7-ol] | 40 ± 0.3 | 36 | uncoupling (OCR) activity in words (L6 rat myoblasts; L6 myoblasts): poor activity
Oc1c(-c2ccc(-c3ccc(F)cc3)cc2)cnc2nonc12 [9h, 6-(4′-Fluoro-[1,1′-biphenyl]-4-yl)-[1,2,5]oxadiazolo[3,4-b]pyridin-7-ol] |  |  | uncoupling (OCR) activity in words (L6 rat myoblasts; L6 myoblasts): inactive
Oc1c(Nc2ccc(-c3cccc(Cl)c3)cc2)cnc2nonc12 [SHO1122147, 6-((3′-Chloro-[1,1′-biphenyl]-4-yl)amino)-[1,2,5]oxadiazolo[3,4-b]pyridin-7-ol] | 3.6 ± 0.1 | 55 | respiration (OCR) in self-limiting test (L6 myoblast cells; SHO1122147 10 μM, BAM15 1.1 μM): 200%; OCR after blockade with oligomycin (L6 myoblast cells; oligomycin 1 μM, then SHO1122147 10 μM or BAM15 1.1 μM at t = 40 min): increased OCR; Cmax at 24 h (in vivo): 35 µM; half-life at 24 h (in vivo): 2 ± 0.07 h; loss of body weight (GAN mouse model of MASH; 200 mg kg^–1 admixed in GAN diet, 4 weeks): 15.4%; fat mass as percent of body weight (EchoMRI) (GAN mouse model of MASH; [2]): lowering fat mass; fat-free lean mass as percent of body weight (EchoMRI) (GAN mouse model of MASH; [2]): increasing fat-free lean mass; liver mass (GAN mouse model of MASH; [2]): no significant change; liver triglycerides (GAN mouse model of MASH; [2]): decreased; plasma alanine aminotransferase (ALT) (GAN mouse model of MASH; [2]): decreased; fibrosis stage (GAN mouse model of MASH; 200 mg kg^–1 in GAN diet, 4 weeks, compared to GAN controls): No changes; MAFLD activity score (GAN mouse model of MASH; 200 mg kg^–1 in GAN diet, 4 weeks, primarily due to decreased hepatic steatosis): significant decrease; caloric intake (GAN mouse model of MASH; 200 mg kg^–1 in GAN diet, food intake monitored daily): no significant changes; body temperature (GAN mouse model of MASH; 200 mg kg^–1 day^–1): without changes in body temperature
semaglutide |  |  | loss of lean mass [1]: up to 40%

— paper PMC11647902, “Design, Synthesis, and Biological Evaluation of [1,2,5]Oxadiazolo[3,4-b]pyridin-7-ol as Mitochondrial Uncouplers for the Treatment of Obesity and Metabolic Dysfunction-Associated Steatohepatitis” (Journal of Medicinal Chemistry, 2024)
